# Structures can show the parent of a compound that is named as a salt. Where a SMILES comes first, the peptide text is derived from it. [ ]: non-standard residue; d: D form. The star is where a group is joined. Gly(cPent) = N[CH](C(=O)O)C1CCCC1; Cbz = O=C(OCc1ccccc1)*; Abu = CC[CH](N)C(=O)O
# Tested on: not listed separately
# Assay: Solubility of inhibitors in Locke's buffer
# Assay type: physicochemical
# Details: Locke's buffer pH 7.4; sulfonic acids: buffer added to weighed sample at 20° C.; control aldehydes: by UV absorption of filtrate
row,Compound,Solubility [mg/mL]
1,O=CC(Cc1ccccc1)NC(=O)C(NC(=O)OCc1ccccc1)C1CCCC1 (stereo not drawn) [Cbz-CyclopentylGly-Phe-H] (Cbz-[Gly(cPent)]-Phe-aldehyde; configuration not given here),0.08
2,CCC(C=O)NC(=O)C(CC(C)C)NC(=O)OCc1ccccc1 (stereo not drawn) [Cbz-Leu-Abu-H] (Cbz-Leu-[Abu]-aldehyde; configuration not given here),0.21
3,CC(C)[C@H](NC(=O)OCc1ccccc1)C(=O)N[C@H](C=O)Cc1ccccc1 [Cbz-Val-Phe-H] (Cbz-Val-Phe-aldehyde),0.18
4,CC(C)C[C@H](NC(=O)N1CCc2ccccc2C1)C(=O)N[C@H](C=O)Cc1ccccc1 [THIQ-2-CO-Leu-Phe-H],0.18

# Biological target: T1, Recombinant human calpain I (Homo sapiens, UniProt P07384)
# T1 construct: made in house
# T1 sequence (P07384 1-714): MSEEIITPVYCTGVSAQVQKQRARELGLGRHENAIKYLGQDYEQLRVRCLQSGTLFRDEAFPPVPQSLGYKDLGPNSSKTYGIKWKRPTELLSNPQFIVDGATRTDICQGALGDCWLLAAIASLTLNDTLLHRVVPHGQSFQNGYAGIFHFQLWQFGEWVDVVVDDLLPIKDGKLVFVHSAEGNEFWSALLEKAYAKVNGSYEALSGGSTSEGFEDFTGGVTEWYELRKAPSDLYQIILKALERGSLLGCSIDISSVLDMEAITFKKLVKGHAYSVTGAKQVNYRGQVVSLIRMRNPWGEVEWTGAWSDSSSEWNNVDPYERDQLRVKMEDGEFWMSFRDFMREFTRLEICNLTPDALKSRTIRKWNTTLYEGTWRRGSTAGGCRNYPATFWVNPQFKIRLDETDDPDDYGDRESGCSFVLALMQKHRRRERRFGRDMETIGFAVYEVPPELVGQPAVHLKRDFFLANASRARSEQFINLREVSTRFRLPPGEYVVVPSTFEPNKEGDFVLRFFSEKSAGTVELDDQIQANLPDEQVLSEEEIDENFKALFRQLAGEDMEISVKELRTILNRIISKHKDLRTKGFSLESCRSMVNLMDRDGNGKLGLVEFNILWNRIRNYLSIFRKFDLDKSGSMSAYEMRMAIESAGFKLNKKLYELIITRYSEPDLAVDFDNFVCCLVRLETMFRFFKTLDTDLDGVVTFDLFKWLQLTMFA
# T1 sequence (P04632 1-268 partner): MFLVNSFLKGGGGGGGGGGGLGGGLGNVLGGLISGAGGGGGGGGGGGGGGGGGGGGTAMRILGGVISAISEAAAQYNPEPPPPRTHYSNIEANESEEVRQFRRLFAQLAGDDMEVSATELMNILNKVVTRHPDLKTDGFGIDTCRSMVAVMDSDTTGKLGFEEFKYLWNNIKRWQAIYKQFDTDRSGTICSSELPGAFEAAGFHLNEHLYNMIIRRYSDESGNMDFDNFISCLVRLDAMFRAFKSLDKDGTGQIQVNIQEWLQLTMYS
# Assay: Inhibition of calpain I activity (Succ-Leu-Tyr-MNA hydrolysis)
# Assay type: biochemical
# Details: 0.2 mM Succ-Leu-Tyr-MNA, pH 7.5
# Method: To evaluate inhibitory activity, stock solutions (40 concentrated) of each compound to be tested were prepared in 100% anhydrous DMSO and 5 μl of each inhibitor preparation were aliquoted into each of three wells of a 96-well plate. Recombinant human calpain I, prepared by the of Meyer et al. (Biochem. J. 1996, 314: 511-519), was into assay buffer (i.e., 50 mM Tris, 50 mM NaCl, 1 mM EDTA, 1 mM EGTA, and 5 mM β-mercaptoethanol, pH 7.5, including 0.2 mM Succ-Leu-Tyr-MNA), and 175 μl was aliquoted into the same wells containing the independent inhibitor stocks as well as to positive control wells which contained 5 μl DMSO, but no compound. To start the reaction, 20 μl of 50 mM CaCl2 in assay buffer was added to all wells of the plate, excepting three, which were used as background signal baseline controls. Substrate hydrolysis was monitored every 5 minutes for a total of 30 minutes. Substrate hydrolysis in the absence of inhibitor was linear for up to 15 minutes.
# Inhibition of calpain I activity was calculated as the percent decrease in the rate of substrate hydrolysis in the presence of inhibitor relative to the rate in its absence. Comparison between the inhibited and control rates was made within the linear range for substrate hydrolysis. The IC50 values for inhibitors (concentration yielding 50% inhibition) were determined from the percent decrease in rates of substrate hydrolysis in the presence of five to seven different concentrations of the test compound. The results were plotted as percent inhibition versus log inhibitor concentration, and the IC50 was calculated by fitting the data to the four-parameter logistic equation shown below using the program GraphPad Prism (GraphPad Software, Inc., San Diego, Calif.).
# In the equation above, the parameters a, b, c, and d are defined as follows: a is % inhibition in the absence of inhibitor, b is the slope, c is the IC50, and d is the % inhibition at an infinite concentration of inhibitor.
row,Compound,IC50 [nM]
1,"CC(C)[C@H](NC(=O)OCc1ccccc1)C(=O)NC(Cc1ccccc1)C(O)S(=O)(=O)O (stereo partly drawn) [Compound 1, Benzyloxycarbonyl-L-valyl-2-amino-1-hydroxy-3-phenylpropanesulfonic acid sodium Salt]",10
2,"O=C(N[C@H](C(=O)NC(Cc1ccccc1)C(O)S(=O)(=O)O)C1CCCC1)OCc1ccccc1 (stereo partly drawn) [Compound 3, Benzyloxycarbonyl-L-cyclopentylglycyl-2-amino-1-hydroxy-3-phenylpropanesulfonic acid sodium Salt]",15
3,Tetrahydroisoquinoline-2-carbonyl-L-leucyl-2-amino-1-hydroxy-3-phenylpropanesulfonic acid sodium Salt [Compound 2],32

# — patent US6500802B1, “Peptidyl-2-amino-1-hydroxyalkanesulfonic acid cysteine protease inhibitors” (Cephalon, Inc., priority 1997, dated 2002)
